Read-outs that look alike come from different tables or passages of the source.
Test system: Streptococcus mutans (NBRC13955)
Assay type: cell-based
Settings: Cont. group = 100
Method: The Streptococcus mutans was cultured in Todd-Hewitt Broth at 37° C. overnight (approximately 16 hours), and proliferated until the absorbance OD660 measured at 660 nm reached to a value in the range from 0.8 to 1.4. The Streptococcus mutans proliferated was used. Based on the absorbance measured, the Streptococcus mutans was diluted with PBS such that OD660 was 0.125, to prepare a bacterial culture to be used in the following test.
The Codium fragile extract liquid was diluted with PBS to have a concentration of 1%, and then used in the following test.
Each antibacterial agent used in the test was prepared to have a concentration that was two times a test concentration for mixing of the antibacterial agent with the Codium fragile extract liquid, a fraction having a predetermined molecular weight, or PBS at 1:1.
As a CPC solution, a stock solution (2% CPC) was obtained by dissolving 0.2 g of CPC in 10 mL of ethanol solution. This solution was diluted 20-fold with purified water to prepare a 0.1% CPC (5% ethanol) solution. This solution was further diluted with a 5% ethanol solution to prepare 0.05% CPC (5% ethanol) and 0.02% CPC (5% ethanol).
As a benzalkonium chloride solution, a stock solution (2% benzalkonium chloride) was obtained by dissolving 0.2 g of benzalkonium chloride in 10 mL of ethanol solution. This solution was diluted 5-fold with ethanol to prepare an ethanol solution of 0.4% benzalkonium chloride solution. This solution was diluted 20-fold with purified water to prepare 0.02% benzalkonium chloride (5% ethanol). This was further diluted 2-fold with a 5% ethanol solution to prepare a 0.01% benzalkonium chloride (5% ethanol) solution. This solution was diluted 2 times with a 5% ethanol solution to prepare a 0.005% benzalkonium chloride (5% ethanol) solution.
A 20% aqueous chlorhexidine solution was used as an undiluted solution of chlorhexidine solution. The chlorhexidine solution was diluted 20-fold with ethanol and purified water to prepare a 0.1% chlorhexidine (5% ethanol) solution. This solution was further diluted 5-fold with a 5% ethanol solution to prepare a 0.02% chlorhexidine (5% ethanol) solution. This solution was further diluted 10-fold with 5% ethanol to prepare a 0.002% chlorhexidine (5% ethanol) solution.
As an IPMP solution, a stock solution (4% IPMP) was obtained by dissolving 0.4 g of IPMP in 10 mL of ethanol solution. This solution was diluted 20-fold with ethanol and purified water to prepare a 0.2% IPMP (20% ethanol) solution. This solution was further diluted 2-fold with 20% ethanol to prepare a 0.1% IPMP (20% ethanol) solution. This solution was further diluted with 20% ethanol to prepare a 0.04% IPMP (20% ethanol) solution.
Two or more hours after toothbrushing, saliva was collected. Stimulated saliva secreted by mastication of Parafilm was collected, and then centrifuged at 4° C. and 2,000×g for 30 minutes. A supernatant was filtered with suction through a cellulose mixed ester membrane filter (0.1 μm, 90 mm), and the saliva was diluted with PBS to have an appropriate concentration.
100 μL of the human saliva prepared as describe above was added to a 96-well multiplate (made from polystyrene, MultiSorp, manufactured by Thermo Fisher Scientific Inc.), the multiplate was sealed, and incubation was carried out at 37° C. for 1 hour. Each well was then cleaned twice with 300 μL of PBS, 100 μL of each of the samples described above was added, the multiplate was sealed, and incubation was carried out at 37° C. for 1 hour. Subsequently, the liquid was discarded from each of the wells, the wells were cleaned twice with 300 μL of PBS, and 100 μL of the bacterial culture prepared such that OD660 was 0.125 was added to each well.

Molecule: CCCCCCCCCCCCCCCC[n+]1ccccc1 [CPC, cetylpyridinium chloride]
- Adhesion rate (0.010 (w/v %) CPC, relative value, FIG. 1): 92.6
- Adhesion rate (0.025 (w/v %) CPC, relative value, FIG. 1): 93.4
- Adhesion rate (0.050 (w/v %) CPC, relative value, FIG. 1): 98.9

Molecule: Cc1cc(O)ccc1C(C)C [IPMP, 3-methyl-4-isopropyl methylphenol]
- Adhesion rate (0.020 (w/v %) IPMP, FIG. 4): 91.5
- Adhesion rate (0.050 (w/v %) IPMP, FIG. 4): 84.3
- Adhesion rate (0.100 (w/v %) IPMP, FIG. 4): 70.7

Molecule: [H]/N=C(\N/C(=N/[H])NCCCCCCNC(=N)NC(=N)Nc1ccc(Cl)cc1)Nc1ccc(Cl)cc1 [chlorhexidine]
- Adhesion rate (0.010 (w/v %) chlorhexidine, FIG. 3): 85.9
- Adhesion rate (0.025 (w/v %) chlorhexidine, FIG. 3): 63.3
- Adhesion rate (0.050 (w/v %) chlorhexidine, FIG. 3): 62.4

Molecule: benzalkonium chloride
- Adhesion rate (0.010 (w/v %) benzalkonium chloride, FIG. 2): 103
- Adhesion rate (0.025 (w/v %) benzalkonium chloride, FIG. 2): 98.4
- Adhesion rate (0.050 (w/v %) benzalkonium chloride, FIG. 2): 93.8
